Drawing on US6790866B2, “Sulfonamide and carboxamide derivatives and drugs containing the same as the active ingredient” (Ono Pharmaceutical Co., Ltd., priority 1996, dated 2004), this text covers Ki for 16 compounds.

The target in the assay is T1, prostanoid receptor subtype (mouse EP1) (Mus musculus, UniProt P35375).
T1 construct: expressed in transfected cells; host or cells: CHO cells (membrane fraction)
T1 sequence (P35375 1-405): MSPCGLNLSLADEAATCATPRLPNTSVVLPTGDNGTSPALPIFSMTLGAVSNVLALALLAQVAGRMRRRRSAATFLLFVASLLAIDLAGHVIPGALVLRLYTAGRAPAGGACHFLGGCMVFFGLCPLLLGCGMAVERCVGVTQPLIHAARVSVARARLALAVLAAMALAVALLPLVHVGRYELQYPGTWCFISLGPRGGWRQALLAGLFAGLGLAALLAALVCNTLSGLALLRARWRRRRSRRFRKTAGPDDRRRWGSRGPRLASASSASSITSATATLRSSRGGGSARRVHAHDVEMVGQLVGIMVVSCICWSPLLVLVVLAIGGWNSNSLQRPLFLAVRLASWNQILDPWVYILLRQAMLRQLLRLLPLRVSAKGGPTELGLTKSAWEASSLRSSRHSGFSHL
Kind of assay: Binding assay using expression cell of prostanoid receptor subtype (3H-PGE2 competition, CHO cell membrane fraction). The settings on record: membrane fraction of CHO cell expressing mouse EP1; 3H-PGE2 2.5 nM; Ki=IC50/(1+([C]/Kd)); read-out: dissociation constant Ki. How it is done: (i) Binding Assay Using Expression Cell of Prostanoid Receptor Subtype
The preparation of membrane fraction was carried out according to the method of Sugimoto et al (J. Biol. Chem. 267, 6463-6466 (1992)), using expression CHO cell of prostanoid receptor subtype (mouse EP1).
The standard assay mixture contained membrane fraction (0.5 mg/ml), ^3H-PGE2 in a final volume of 200 μl was incubated for 1 hour at room temperature. The reaction was terminated by addition of 3 ml of ice-cold buffer. The mixture was rapidly filtered through a glass filter (GF/B). The radioactivity associated with the filter was measured by liquid scintillation counting.
Kd and Bmax values were determined from Scratchard plots (Ann. N.Y. Acad. Sci. 51, 660 (1949)). Non-specific binding was calculated as the bond in the presence of an excess (2.5 μM) of unlabeled PGE2. In the experiment for competition of specific ^3H-PGE2 was added at a concentration of 2.5 nM and the compound of the present invention was added at a various concentration. The following buffer was used in all reaction.
Buffer: potassium phosphate (pH6.0, 10 mM), EDTA (1 mM), MgCl2 (10 mM), NaCl (0.1M).
The dissociation constant Ki (μM) of each compound was calculated by the following equation.

In general, Ki refers to the equilibrium dissociation constant of an inhibitor or competing ligand from its target. With `O=C(O)c1ccc(NC(=O)c2cc(Br)ccc2NS(=O)(=O)c2ccc(Cl)cc2)cc1` [2(k), 4-[2-(4-chlorophenylsulfonylamino)-5-bromobenzoylamino]benzoic acid], the Ki worked out at 99 nM.
Regarding `O=C(O)c1ccc(COc2cc(C(F)(F)F)ccc2N(C2CCCC2)S(=O)(=O)c2ccccc2)cc1` [18(30), 4-[2-(N-cyclopentyl-phenylsulfonylamino)-5-trifluoromethylphenoxymethyl]benzoic acid], the Ki turned out to be 1.6 nM.
The same measure for `CC(C)N(c1ccc(C(F)(F)F)cc1OC[C@H]1CC[C@H](C(=O)O)CC1)S(=O)(=O)c1ccccc1` [18(38), trans-4-[2-(N-isopropyl-phenylsulfonylamino)-5-trifluoromethylphenoxymethyl]cyclohexanoic acid]: 16 nM.
In the case of `CC(C)N(c1ccc(Cl)cc1OCc1ccc(C(=O)O)cc1)S(=O)(=O)c1cccs1` [18(58), 4-[2-(N-isopropyl-2-thienylsulfonylamino)-5-chlorophenoxymethyl]benzoic acid], the Ki was 6.2 nM.
For `CCCS(=O)(=O)N(Cc1ccccc1)c1ccc(C)cc1OCc1ccc(C(=O)O)cc1` [18(75), 4-[2-(N-benzyl-propylsulfonylamino)-5-methylphenoxymethyl]benzoic acid], the inhibition constant (Ki) was 5.4 nM.
As for `CC(C)CN(c1ccc(C(F)(F)F)cc1OCc1ccc(/C=C/C(=O)O)cc1)S(=O)(=O)c1ccco1` [18(94), 4-[2-(N-isobutyl-2-furanylsulfonylamino)-5-trifluoromethylphenoxymethyl]cinnamic acid], the inhibition constant Ki amounted to 0.4 nM.
As to `CCN(c1ccc(C(F)(F)F)cc1OCc1ccc(/C=C/C(=O)O)cc1)S(=O)(=O)c1ccccc1` [18(102), 4-[2-(N-ethyl-phenylsulfonylamino)-5-trifluoromethylphenoxymethyl]cinnamic acid], the Ki amounted to 0.2 nM.
On to `Cc1ccc(N(C(C)C)S(=O)(=O)CC2CCCC2)c(OCc2ccc(C(=O)O)cc2)c1` [20(20), 4-[2-(N-isopropyl-cyclopentylmethylsulfonylamino)-5-methylphenoxymethyl]benzoic acid], for which the Ki amounted to 9.9 nM.
`O=C(O)c1ccc(COc2cc(Cl)ccc2NS(=O)(=O)c2ccccc2)nc1` [22(3), 6-(2-phenylsulfonylamino-5-chlorophenoxymethyl)nicotinic acid]: the Ki turned out to be 480 nM.
With `CC(C)N(c1ccc(Cl)cc1OCc1ccc(C(=O)O)o1)S(=O)(=O)c1ccccc1` [24(9), 5-[2-(N-isopropyl-phenylsulfonylamino)-5-chlorophenoxymethyl]furan-2-carboxylic acid] the figure was 18 nM; with `CC(C)N(c1ccc(C(F)(F)F)cc1OCc1ccc(OCC(=O)O)cc1)S(=O)(=O)c1ccccc1` [Example 24, 4-[2-(N-isopropyl-phenylsulfonylamino)-5-trifluoromethylphenoxymethyl]phenoxy acetic acid], 5.8 nM; with `CC(C)N(c1ccc(C(F)(F)F)cc1N(C)Cc1ccc(C(=O)O)cc1)S(=O)(=O)c1ccccc1` [Example 30, 4-[N-methyl-[2-(N-isopropyl-phenylsulfonylamino)-5-trifluoromethylphenyl]aminomethyl]benzoic acid], 73 nM.
For the compound `O=C(O)c1ccc(COc2ncc(C(F)(F)F)cc2NS(=O)(=O)c2ccccc2)cc1` [Example 38, 4-(3-phenylsulfonylamino-5-trifluoromethylpyridine-2-yloxymethyl)benzoic acid], the inhibitory constant (Ki) is 160 nM.
For `O=C(O)c1ccc(COc2cc(Cl)ccc2CNS(=O)(=O)c2ccccc2)cc1` [Example 43, 4-(2-phenylsulfonylaminomethyl-5-chlorophenoxymethyl)benzoic acid], the Ki turned out to be 380 nM.
With `CC(C)N(c1ccc(C(F)(F)F)cc1OCc1ccc(C#CC(=O)O)cc1)S(=O)(=O)c1ccccc1` [Example 44, 4-[2-(N-isopropyl-phenylsulfonylamino)-5-trifluoromethylphenoxymethyl]phenylpropiolic acid] the figure was 1.3 nM; with `CC(C)N(c1ccc(C(F)(F)F)cc1/C=C/c1ccc(C(=O)O)cc1)S(=O)(=O)c1ccccc1` [Example 48, 4-[2-[2-(N-isopropyl-phenylsulfonylamino)-5-trifluoromethylphenyl]-(E)-vinyl]benzoic acid], 10 nM.
